Laboratory results from ChEMBL document CHEMBL1201862, “PubChem BioAssay data set” (2004).
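All cell lines were grown in 96-well plates and treated with compound for 48 hours. The concentration for 50% growth inhibition is given as GI50.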 Active and inactive are the calls of the source. Rule as the data show it: active = GI50 up to about 1.1 µM and inactive = higher.

Assays:
Assay in all cases: DTP human tumour cell line panel, 48 h
[1] = test system: HL-60
[2] = test system: RXF 393
[3] = test system: OVCAR-3
[4] = test system: UACC-62
[5] = test system: HCT-116
[6] = test system: DLD-1
[7] = test system: UO-31
[8] = test system: HCC 2998
[9] = test system: SF-539
[10] = test system: TK-10
[11] = test system: SR
[12] = test system: CCRF-CEM
[13] = test system: LOX IMVI
[14] = test system: CAKI-1
[15] = test system: MDA-N
[16] = test system: MDA-MB-435
[17] = test system: OVCAR-4
[18] = test system: SK-MEL-5
[19] = test system: PC-3
[20] = test system: K562

Compound | GI50 [1] | GI50 [2] | GI50 [3] | GI50 [4] | GI50 [5] | GI50 [6] | GI50 [7] | GI50 [8] | GI50 [9] | GI50 [10] | GI50 [11] | GI50 [12] | GI50 [13] | GI50 [14] | GI50 [15] | GI50 [16] | GI50 [17] | GI50 [18] | GI50 [19] | GI50 [20]
Nc1nc(O)c2c(ncn2CCO)n1 | > 100 µM (inactive) | > 100 µM (inactive) | > 100 µM (inactive) | > 100 µM (inactive) | > 100 µM (inactive) | > 100 µM (inactive) | > 100 µM (inactive) | > 100 µM (inactive) | > 100 µM (inactive) | > 100 µM (inactive) | > 100 µM (inactive) | > 100 µM (inactive) | > 100 µM (inactive) | – | – | – | – | – | – | –
Nc1ccn(C2CCC(CO)O2)c(=O)n1 (stereo not given) | 698 µM (inactive) | > 100 µM (inactive) | > 100 µM (inactive) | > 100 µM (inactive) | > 100 µM (inactive) | > 100 µM (inactive) | 836 µM (inactive) | > 100 µM (inactive) | > 100 µM (inactive) | > 1000 µM (inactive) | 367 µM (inactive) | 46.5 µM (inactive) | > 100 µM (inactive) | > 100 µM (inactive) | > 1000 µM (inactive) | > 1000 µM (inactive) | > 83 µM (inactive) | > 100 µM (inactive) | > 1000 µM (inactive) | > 100 µM (inactive)
NC1=NS(=O)(=O)Nc2nc(-c3ccccc3)c(-c3ccccc3)nc21 | > 100 µM (inactive) | > 100 µM (inactive) | > 100 µM (inactive) | > 100 µM (inactive) | > 100 µM (inactive) | > 100 µM (inactive) | > 100 µM (inactive) | > 100 µM (inactive) | > 100 µM (inactive) | > 100 µM (inactive) | > 100 µM (inactive) | > 100 µM (inactive) | > 100 µM (inactive) | – | – | – | > 100 µM (inactive) | > 100 µM (inactive) | – | > 100 µM (inactive)
Cc1cc(NCCCCCCCCNc2cc(C)nc3cc(N)ccc23)c2ccc(N)cc2n1 | 0.566 µM (active) | 27.7 µM (inactive) | 14.9 µM (inactive) | 17 µM (inactive) | – | 16.9 µM (inactive) | > 100 µM (inactive) | 15.1 µM (inactive) | 17 µM (inactive) | 44.9 µM (inactive) | 10.9 µM (inactive) | 3.13 µM (inactive) | 17.1 µM (inactive) | 46.8 µM (inactive) | – | – | 17.3 µM (inactive) | 10.9 µM (inactive) | – | 1.95 µM (inactive)
CC(C)(Br)C(=O)C(Br)Br | 1.9 µM (inactive) | 3.16 µM (inactive) | 6.89 µM (inactive) | 10.5 µM (inactive) | 4.26 µM (inactive) | 1.77 µM (inactive) | 17.5 µM (inactive) | 17.1 µM (inactive) | > 33.2 µM (inactive) | 9.04 µM (inactive) | – | 1.51 µM (inactive) | 4.86 µM (inactive) | 1.95 µM (inactive) | 5.3 µM (inactive) | 5.58 µM (inactive) | 5.09 µM (inactive) | 12.4 µM (inactive) | 5.4 µM (inactive) | 2.95 µM (inactive)
Fc1ccc(C2SCc3nc4ccccc4n32)c(F)c1 (stereo not given) | 22 µM (inactive) | 98.4 µM (inactive) | 51.1 µM (inactive) | 64.7 µM (inactive) | 54 µM (inactive) | 67.6 µM (inactive) | 42.3 µM (inactive) | 98.6 µM (inactive) | > 100 µM (inactive) | 32.5 µM (inactive) | 34.6 µM (inactive) | 51.6 µM (inactive) | 81.5 µM (inactive) | > 100 µM (inactive) | – | – | 95.7 µM (inactive) | 32.1 µM (inactive) | – | 34.9 µM (inactive)
Nc1nc2c(ncn2C2CCC(CO)O2)c(=O)n1C(=O)c1ccccc1 (stereo not given) | > 100 µM (inactive) | > 100 µM (inactive) | > 100 µM (inactive) | > 100 µM (inactive) | > 100 µM (inactive) | > 100 µM (inactive) | > 100 µM (inactive) | > 100 µM (inactive) | > 100 µM (inactive) | > 100 µM (inactive) | 67.3 µM (inactive) | > 100 µM (inactive) | > 100 µM (inactive) | > 100 µM (inactive) | > 100 µM (inactive) | > 100 µM (inactive) | > 100 µM (inactive) | > 100 µM (inactive) | > 100 µM (inactive) | > 100 µM (inactive)
CCOC(=O)C(=O)NNc1nc2c(s1)C(=O)c1ccccc1C2=O | 1.47 µM (inactive) | 4.78 µM (inactive) | 1.88 µM (inactive) | 4.94 µM (inactive) | 2.68 µM (inactive) | 5.04 µM (inactive) | 2.29 µM (inactive) | 14.9 µM (inactive) | 2.46 µM (inactive) | 24.5 µM (inactive) | 0.465 µM (active) | 2.34 µM (inactive) | 1.75 µM (inactive) | 20.3 µM (inactive) | 1.8 µM (inactive) | 1.77 µM (inactive) | 1.85 µM (inactive) | 1.86 µM (inactive) | 12 µM (inactive) | 2.3 µM (inactive)
Cc1ccc(S(=O)(=O)N2c3ccccc3[C@H]3CCC=C[C@H]32)cc1 | 4.58 µM (inactive) | 3.61 µM (inactive) | 4 µM (inactive) | 4.82 µM (inactive) | 5.86 µM (inactive) | 13.3 µM (inactive) | 5 µM (inactive) | 8.11 µM (inactive) | 9.42 µM (inactive) | 13.7 µM (inactive) | 3.03 µM (inactive) | 6.9 µM (inactive) | 10.4 µM (inactive) | 12.1 µM (inactive) | 3.06 µM (inactive) | – | 17.3 µM (inactive) | 7.4 µM (inactive) | 11.2 µM (inactive) | 3.38 µM (inactive)
CC1NS(=O)(=O)N(C)C1=O (stereo not given) | > 100 µM (inactive) | > 100 µM (inactive) | > 100 µM (inactive) | > 100 µM (inactive) | > 100 µM (inactive) | > 100 µM (inactive) | – | > 100 µM (inactive) | > 100 µM (inactive) | > 100 µM (inactive) | > 100 µM (inactive) | > 100 µM (inactive) | > 100 µM (inactive) | > 100 µM (inactive) | – | – | > 100 µM (inactive) | > 100 µM (inactive) | – | > 100 µM (inactive)
COC(=O)C(=C\Sc1ccccc1)/C=C/C(=O)OC(C)(C)C | 1.48 µM (inactive) | 2.69 µM (inactive) | 5.25 µM (inactive) | 15.3 µM (inactive) | 8.47 µM (inactive) | 2.62 µM (inactive) | 16 µM (inactive) | 10.1 µM (inactive) | 13.6 µM (inactive) | 17.1 µM (inactive) | 2.87 µM (inactive) | 1.89 µM (inactive) | 8.32 µM (inactive) | 3.87 µM (inactive) | – | – | 15 µM (inactive) | 15 µM (inactive) | – | 3.01 µM (inactive)
C#CCNC(=O)NC(CCCCNC(=O)OCc1ccccc1)C(=O)OCc1ccccc1 (stereo not given) | 16 µM (inactive) | 10.8 µM (inactive) | 62.2 µM (inactive) | 12.7 µM (inactive) | > 100 µM (inactive) | > 100 µM (inactive) | 21.6 µM (inactive) | 31.5 µM (inactive) | 38.9 µM (inactive) | 37.6 µM (inactive) | 34.8 µM (inactive) | 49.8 µM (inactive) | 33.7 µM (inactive) | > 74 µM (inactive) | 32.9 µM (inactive) | 22.8 µM (inactive) | > 100 µM (inactive) | 18.3 µM (inactive) | > 67 µM (inactive) | 53.6 µM (inactive)
CCOC(=O)C=C1CCC2(CC1)OCCO2 | > 100 µM (inactive) | > 100 µM (inactive) | > 100 µM (inactive) | > 100 µM (inactive) | > 100 µM (inactive) | > 100 µM (inactive) | > 100 µM (inactive) | > 100 µM (inactive) | > 100 µM (inactive) | > 100 µM (inactive) | > 100 µM (inactive) | > 100 µM (inactive) | > 100 µM (inactive) | > 100 µM (inactive) | – | – | > 100 µM (inactive) | > 100 µM (inactive) | – | > 100 µM (inactive)
N#Cc1c2nc3ccccc3nc2n2ccccc12 | > 100 µM (inactive) | – | > 100 µM (inactive) | > 100 µM (inactive) | > 100 µM (inactive) | > 100 µM (inactive) | > 100 µM (inactive) | > 100 µM (inactive) | > 100 µM (inactive) | > 100 µM (inactive) | > 100 µM (inactive) | > 100 µM (inactive) | > 100 µM (inactive) | > 100 µM (inactive) | – | – | > 100 µM (inactive) | > 100 µM (inactive) | – | > 100 µM (inactive)
CC(=O)OC1C/C(C)=C/[C@H](O)CC(C)/C=C/[C@@]2(C)CCC(C(C)(C)O)C12 (stereo not given in full) | > 100 µM (inactive) | > 100 µM (inactive) | > 100 µM (inactive) | > 100 µM (inactive) | > 100 µM (inactive) | > 100 µM (inactive) | > 100 µM (inactive) | > 100 µM (inactive) | > 100 µM (inactive) | > 100 µM (inactive) | > 100 µM (inactive) | > 100 µM (inactive) | > 100 µM (inactive) | > 100 µM (inactive) | – | – | > 100 µM (inactive) | > 100 µM (inactive) | – | > 100 µM (inactive)
CC12OC3CC(O1)C1(C=O)C4CCC5(C)C(c6ccc(=O)oc6)CCC5(O)C4CCC1(C3)O2 (stereo not given) | 0.189 µM (active) | 0.104 µM (active) | 0.13 µM (active) | 0.288 µM (active) | 0.0537 µM (active) | 0.0995 µM (active) | 0.304 µM (active) | 0.56 µM (active) | 0.102 µM (active) | 0.143 µM (active) | 0.0498 µM (active) | 0.0735 µM (active) | 0.177 µM (active) | 0.207 µM (active) | – | – | 0.155 µM (active) | 0.0895 µM (active) | – | 0.265 µM (active)
